Some test systems named below: BT-549 breast; COLO 205 colon; HCC-2998 colon; HL-60(TB) leukemia; HS 578T breast; MCF7 breast; MDA-MB-231 breast; SF-295 CNS; SK-OV-3 ovarian; UACC-257 melanoma.
Experiment in all cases: DTP human tumour cell line panel, 48 h

Several values for one entry are separate records, joined by “and”; a condition that tells them apart may be missing. Equal entries are not always repeated.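 Five compound concentrations were applied to cells in 96-well plates for 48 hours; endpoints were derived by simple linear interpolation of the resulting dose-response curve. GI50 marks 50% less growth. TGI: total growth inhibition.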 Where only a bound is given, the exact number is not on record here.

Take `CC(C)=CCc1c(OC(=O)c2c(C)cc(O)cc2O)cc(CO)c(CO)c1O`: the TGI (as a rule, the concentration giving total growth inhibition) in the assay with BT-549 breast was determined as 41 µM; with COLO 205 colon it was 33.8 µM; with HCC-2998 colon, 31.7 µM; in the assay on HL-60(TB) leukemia it was 19.1 µM; with HS 578T breast, 54.8 µM; in the assay on MCF7 breast it was 46.5 µM. Further, the TGI is 48.3 µM in the assay on MDA-MB-231 breast, 37.5 µM with SF-295 CNS, 30.9 µM in the assay with SK-OV-3 ovarian and greater than 100 µM in the assay with UACC-257 melanoma.

Turning to `Nc1ccc(C2=NN(c3ccccc3)C(c3ccc(Cl)cc3)C2)cc1` (stereo not given), the GI50 (commonly the concentration giving 50% growth inhibition) in the assay with BT-549 breast was 2.21 µM; in the assay with COLO 205 colon, 2.15 µM; in the assay with HCC-2998 colon it was 1.86 µM; with HL-60(TB) leukemia, 3.71 µM; in the assay with HS 578T breast, 5.7 µM; with MCF7 breast, 1.32 µM. Moreover, the GI50 is 2.38 µM in the assay on MDA-MB-231 breast, 9 µM in the assay on SF-295 CNS, 9.09 µM in the assay with SK-OV-3 ovarian and 3.13 µM in the assay on UACC-257 melanoma. Further, the TGI worked out at 5.32 µM with BT-549 breast; 4.54 µM in the assay with COLO 205 colon; 3.29 µM with HCC-2998 colon; 22.8 µM in the assay on HL-60(TB) leukemia; 50.5 µM in the assay on HS 578T breast; 3.82 µM in the assay with MCF7 breast. For the same compound, the TGI in the assay with MDA-MB-231 breast came out at 6.98 µM; with SF-295 CNS it was 24.9 µM; in the assay on SK-OV-3 ovarian it was 29.9 µM; with UACC-257 melanoma, 11.2 µM.

As to `CC[N+](CC)=c1sc2c(s1)C(c1ccc(Cl)cc1)Oc1ccc(Cl)cc1-2` (stereo not given), the GI50 was 0.749 µM in the assay with BT-549 breast; 1.65 µM with COLO 205 colon; 1.52 µM with HCC-2998 colon; 2.22 µM with HL-60(TB) leukemia; 1.43 µM in the assay with HS 578T breast; 1.54 µM with MCF7 breast. Moreover, the GI50 with MDA-MB-231 breast is 1.93 µM; in the assay on SF-295 CNS, 1.09 µM; in the assay with SK-OV-3 ovarian, 2.51 µM; in the assay with UACC-257 melanoma it was 2.33 µM. Besides, the TGI with BT-549 breast is 2.31 µM; in the assay on COLO 205 colon it was 3.77 µM; in the assay with HCC-2998 colon, 3.74 µM; in the assay on HL-60(TB) leukemia, 5.98 µM; in the assay on HS 578T breast it was 5.59 µM; in the assay on MCF7 breast it was 4.73 µM. Also, the total growth inhibition concentration (TGI) stood at 4.35 µM with MDA-MB-231 breast, 4.64 µM in the assay with SF-295 CNS, 8.72 µM in the assay with SK-OV-3 ovarian and 5.46 µM in the assay on UACC-257 melanoma.

For `Cc1cnc(NC(=O)Nc2cc(Br)c(C)cc2OC[C@@H]2CNCCO2)cn1`, the GI50 in the assay with BT-549 breast was 1.28 µM and 1.29 µM; in the assay with COLO 205 colon, 2.58 µM and 2.72 µM; in the assay with HCC-2998 colon, 0.468 µM and 0.493 µM; with HL-60(TB) leukemia, 0.388 µM and 0.545 µM; in the assay on HS 578T breast, 0.572 µM and 0.771 µM; with MCF7 breast, 0.431 µM and 0.418 µM. In addition, the GI50 in the assay on MDA-MB-231 breast is 2.96 µM and 1.48 µM; in the assay on SF-295 CNS it was 0.326 µM and 0.263 µM; in the assay with SK-OV-3 ovarian, 0.916 µM and 0.474 µM; in the assay with UACC-257 melanoma, 1.59 µM and 2.44 µM. Besides, the TGI in the assay with BT-549 breast was > 10 µM and 13.6 µM; in the assay with COLO 205 colon it was 9.03 µM and 8.55 µM; with HCC-2998 colon, > 10 µM and 5.28 µM; in the assay on HL-60(TB) leukemia it was 5.46 µM and 2.43 µM; in the assay on HS 578T breast it was > 10 µM and 8.82 µM; with MCF7 breast, > 10 µM and 6.15 µM. The total growth inhibition concentration (TGI) in the assay on MDA-MB-231 breast is > 10 µM and 7.39 µM; in the assay with SF-295 CNS, > 10 µM and 3.02 µM; in the assay with SK-OV-3 ovarian, > 10 µM and 12.3 µM; in the assay with UACC-257 melanoma it was 3.59 µM and 8.37 µM.

`Cc1nc(SCC(=O)Nc2nc(-c3ccc(Cl)cc3)cs2)n(Nc2ccccc2)c1C`: the GI50 with BT-549 breast was 7.02 µM; in the assay with COLO 205 colon it was 4.13 µM; in the assay on HCC-2998 colon it was 10.6 µM; with HL-60(TB) leukemia, 2.99 µM; with HS 578T breast it was 3.42 µM; in the assay with MCF7 breast, 2.94 µM. The GI50 in the assay on MDA-MB-231 breast was 3.01 µM; with SF-295 CNS it was 2.29 µM; in the assay on SK-OV-3 ovarian, 5.91 µM; in the assay with UACC-257 melanoma it was 3.07 µM. The TGI with BT-549 breast is 20.9 µM; in the assay with COLO 205 colon, 14.5 µM; in the assay with HCC-2998 colon it was 29.5 µM; in the assay on HL-60(TB) leukemia, greater than 100 µM; in the assay with HS 578T breast, 21.6 µM; in the assay on MCF7 breast it was 11.4 µM. The TGI in the assay on MDA-MB-231 breast worked out at 15.2 µM; in the assay on SF-295 CNS, 16.5 µM; in the assay with SK-OV-3 ovarian it was 19.8 µM; in the assay with UACC-257 melanoma it was 17 µM.

For the compound `C#CCOc1cccc(-c2ncnc3cc(NC(=O)CCl)ccc23)c1`, the GI50 is 0.849 µM in the assay with BT-549 breast; 0.0976 µM in the assay with COLO 205 colon; 1.09 µM in the assay on HCC-2998 colon; 0.536 µM with HL-60(TB) leukemia; 1.92 µM with HS 578T breast; 0.0764 µM in the assay on MCF7 breast. Also, the GI50 in the assay on MDA-MB-231 breast is 0.481 µM; with SF-295 CNS, 2.44 µM; in the assay on SK-OV-3 ovarian it was 2.22 µM; with UACC-257 melanoma it was 1.64 µM. The concentration for total growth inhibition (TGI) with BT-549 breast came to 2.31 µM; in the assay with COLO 205 colon, 2.77 µM; in the assay on HCC-2998 colon, 2.75 µM; in the assay on HL-60(TB) leukemia, 4.36 µM; with HS 578T breast, 14.5 µM; with MCF7 breast, 1.75 µM. For the same compound, the TGI was 4.57 µM in the assay with MDA-MB-231 breast, 9.25 µM in the assay with SF-295 CNS, 7.38 µM in the assay with SK-OV-3 ovarian and 5.19 µM with UACC-257 melanoma.

With `COc1cccc(-c2nc3sccn3c2-c2ccnc(NCCCNS(=O)(=O)c3cccc(F)c3)c2)c1`, the GI50 with BT-549 breast is 2.39 µM; in the assay on COLO 205 colon, 2.22 µM; with HCC-2998 colon it was 5.12 µM; in the assay with HL-60(TB) leukemia, 1.84 µM; with HS 578T breast it was 3 µM; in the assay on MCF7 breast it was 2.49 µM. The GI50 in the assay with MDA-MB-231 breast is 3.62 µM; in the assay with SF-295 CNS, 2.37 µM; with SK-OV-3 ovarian, 4.86 µM; with UACC-257 melanoma it was 2.89 µM. For the same compound, the TGI was 7.05 µM in the assay on BT-549 breast; 11.1 µM in the assay with COLO 205 colon; greater than 100 µM with HCC-2998 colon; 4.91 µM in the assay with HL-60(TB) leukemia; greater than 100 µM in the assay with HS 578T breast; greater than 100 µM in the assay with MCF7 breast. The TGI in the assay with MDA-MB-231 breast is greater than 100 µM; in the assay on SF-295 CNS it was 7.48 µM; in the assay with SK-OV-3 ovarian, greater than 100 µM; with UACC-257 melanoma, 9.68 µM.

The values are drawn from PubChem BioAssay (NCI).
